Experimental data published in PMC11320734 (ACS Pharmacology & Translational Science, 2024).
Converted amounts (≈) assume the structure as drawn. Like-named read-outs stand apart in the source and are kept apart here.

What was measured:
[1] = Rodent single-dose PK studies (summary rats and mice); format: in vivo
Method: To characterize the pharmacokinetic behavior of RNB-61, studies in rodents were conducted at the in vivo facility of F. Hoffmann-La Roche Ltd. (Basel, Switzerland). The plasma-concentration time profile was studied in rodents after single-dose RNB-61 administration by oral gavage (p.o. microsuspension excipients 7.5% gelatin/0.62% NaCl) and intravenous bolus injection (i.v. solution, excipients NMP:NaCl (30:70)). Three groups of male Wistar rats (n = 2 per group) were administered RNB-61 either at 1 mg kg^–1 i.v., 3 mg kg^–1 p.o., or 26 mg kg^–1 p.o. Plasma samples were drawn at 0.083, 0.25, 0.5, 1, 2, 4, 8, and 24 postdose in the i.v. group and at 0.25, 0.5, 0.75, 1.5, 3, 5, 8, and 24 h postdose in the p.o. groups. The samples were analyzed for RNB-61 concentration by LC/MS-MS. For the LC/MS-MS analysis, and the samples were prepared by adding 100 uL to 400 uL ACN with ISTD (100 ng/mL Bosantan in ACN/MeOH 1/1), stirring, and centrifuging (4000 rpm, 65’). 100 uL of the supernatant were pipetted and diluted with 400 μL H2O at pH 3. The analytes were separated on a Restek C18 column (5 μm, 1.0 × 3 mm). The mobile phase consisted of water containing 0.1% HCOOH as solvent A and ACN containing 0.1% HCOOH as solvent B. The gradient curve starting with 5% B was changed to 90% B between 0.4 and 0.6 min and further increased to 95% B between 0.6 and 1.2 min. This was maintained until 1.4 min and then reduced and kept at 5% B between 1.45 and 2.0 min. The mass spectrometer was operated in the positive mode. All LC-MS/MS was done using the Agilent RapidFire Analyzer software (version 4.3). The pharmacokinetic parameters were estimated by noncompartmental analysis in the Certara WinNonlin software (version 5.3). A similar study design was run in mice with three groups receiving 2 mg kg^–1 i.v., 4 mg kg^–1 p.o., or 26 mg kg^–1 p.o., and plasma sampling occurring in a composite profile (n = 2 for each time point) up to 7 or 24 h postdose. Male C57/BL6 mice (n = 5 per group) were used to study the influence of P-gp efflux on brain penetration. […]

[2] = test system: endocannabinoid membrane transporter (EMT); assay: Endocannabinoid target profiling: cellular AEA uptake; format: cell-based
hERG channel = hERG channel (Homo sapiens, UniProt Q12809); assay: hERG inhibition; format: cell-based
[3] = Thermodynamic solubility assay (THESA), also in FaSSIF and FeSSIF; format: physicochemical; conditions: thermodynamic from solid
Method: For the determination of the octanol/water distribution coefficient (logD), the carrier-mediated distribution system (CAMDIS)-assay was used as described elsewhere.[38] Kinetic and thermodynamic solubilities were assessed using the lyophilization solubility assay (LYSA) and thermodynamic solubility assay (THESA), respectively. For the LYSA, the solubility of RNB- 61 in phosphate buffer at pH 6.5 from an evaporated 10 mM DMSO compound stock solution was measured. Two aliquots of the test compounds were dried and dissolved in phosphate buffer at pH 6.5. The solutions were then filtered and diluted (3 different dilution levels for each compound) before high throughput mass spectrometry (MS) analysis was performed in an Agilent RapidFire system. Each test compound was quantified using a 6-point calibration curve prepared with the same DMSO starting solution. For THESA, RNB-61 (8.6 mg per mL solvent/vehicle) was stirred in HPLC vials (9 × 12 × 32 mm, Waters) at 350 rpm for 15 h. The presence of solid particles was determined by microscopic analysis of 10 μL samples. If the active pharmacological ingredient (API) was completely dissolved, more solid API was added before stirring for another 15 h. This step was repeated for up to 96 h or until residual solid particles could be detected. Samples (0.5 mL) were transferred to Eppendorf Ultrafree filter tubes (Filter: PVDF 0.22 μm) and centrifuged at 14,500 rpm for 10 min. The filtrates were diluted in ethanol and analyzed by ultra-performance liquid chromatography (UPLC). Measurements were repeated in 0.05 M aqueous phosphate buffer and in fasted (FaSSIF) and fed (FeSSIF) simulated gastrointestinal fluids.

mouse CB2R = target: T1, mouse CB2R (Mus musculus, UniProt P47936); assay: cAMP assay in CHO cells; format: cell-based; conditions: mean ± SD
T1 construct: expressed in transfected cells; host or cells: CHO cells

[4] = Single-dose pharmacokinetics in male Wistar rats; format: in vivo; conditions: rat, plasma
Method: To characterize the pharmacokinetic behavior of RNB-61, studies in rodents were conducted at the in vivo facility of F. Hoffmann-La Roche Ltd. (Basel, Switzerland). The plasma-concentration time profile was studied in rodents after single-dose RNB-61 administration by oral gavage (p.o. microsuspension excipients 7.5% gelatin/0.62% NaCl) and intravenous bolus injection (i.v. solution, excipients NMP:NaCl (30:70)). Three groups of male Wistar rats (n = 2 per group) were administered RNB-61 either at 1 mg kg^–1 i.v., 3 mg kg^–1 p.o., or 26 mg kg^–1 p.o. Plasma samples were drawn at 0.083, 0.25, 0.5, 1, 2, 4, 8, and 24 postdose in the i.v. group and at 0.25, 0.5, 0.75, 1.5, 3, 5, 8, and 24 h postdose in the p.o. groups. The samples were analyzed for RNB-61 concentration by LC/MS-MS. For the LC/MS-MS analysis, and the samples were prepared by adding 100 uL to 400 uL ACN with ISTD (100 ng/mL Bosantan in ACN/MeOH 1/1), stirring, and centrifuging (4000 rpm, 65’). 100 uL of the supernatant were pipetted and diluted with 400 μL H2O at pH 3. The analytes were separated on a Restek C18 column (5 μm, 1.0 × 3 mm). The mobile phase consisted of water containing 0.1% HCOOH as solvent A and ACN containing 0.1% HCOOH as solvent B. The gradient curve starting with 5% B was changed to 90% B between 0.4 and 0.6 min and further increased to 95% B between 0.6 and 1.2 min. This was maintained until 1.4 min and then reduced and kept at 5% B between 1.45 and 2.0 min. The mass spectrometer was operated in the positive mode. All LC-MS/MS was done using the Agilent RapidFire Analyzer software (version 4.3). The pharmacokinetic parameters were estimated by noncompartmental analysis in the Certara WinNonlin software (version 5.3). A similar study design was run in mice with three groups receiving 2 mg kg^–1 i.v., 4 mg kg^–1 p.o., or 26 mg kg^–1 p.o., and plasma sampling occurring in a composite profile (n = 2 for each time point) up to 7 or 24 h postdose. Male C57/BL6 mice (n = 5 per group) were used to study the influence of P-gp efflux on brain penetration. Two groups of mice were administered RNB-61 by i.v. bolus injection at 1 mg kg^–1 (2 groups). In order to block P-gp activity, an i.v. bolus of 5 mg kg^–1 tariquidar[46] was injected into one group 30 min prior to RNB-61. Plasma was collected at 0.083, 0.25, 0.5, 2, 4, and 7 h postdose in a composite profile. Brain, CSF, and vitreous body were collected at terminal time points 0.5, 2, 4, and 7 h postdose.

TRPV1 = TRPV1 (Homo sapiens, UniProt Q8NER1); assay: Endocannabinoid target profiling: TRPV1; conditions: Table S1; read-out: TRPV1 (Ki, IC50)
Microsomal clearance = format: in vitro ADME; conditions: rat, rat microsomes

Sequence of hERG channel (Q12809 whole entry): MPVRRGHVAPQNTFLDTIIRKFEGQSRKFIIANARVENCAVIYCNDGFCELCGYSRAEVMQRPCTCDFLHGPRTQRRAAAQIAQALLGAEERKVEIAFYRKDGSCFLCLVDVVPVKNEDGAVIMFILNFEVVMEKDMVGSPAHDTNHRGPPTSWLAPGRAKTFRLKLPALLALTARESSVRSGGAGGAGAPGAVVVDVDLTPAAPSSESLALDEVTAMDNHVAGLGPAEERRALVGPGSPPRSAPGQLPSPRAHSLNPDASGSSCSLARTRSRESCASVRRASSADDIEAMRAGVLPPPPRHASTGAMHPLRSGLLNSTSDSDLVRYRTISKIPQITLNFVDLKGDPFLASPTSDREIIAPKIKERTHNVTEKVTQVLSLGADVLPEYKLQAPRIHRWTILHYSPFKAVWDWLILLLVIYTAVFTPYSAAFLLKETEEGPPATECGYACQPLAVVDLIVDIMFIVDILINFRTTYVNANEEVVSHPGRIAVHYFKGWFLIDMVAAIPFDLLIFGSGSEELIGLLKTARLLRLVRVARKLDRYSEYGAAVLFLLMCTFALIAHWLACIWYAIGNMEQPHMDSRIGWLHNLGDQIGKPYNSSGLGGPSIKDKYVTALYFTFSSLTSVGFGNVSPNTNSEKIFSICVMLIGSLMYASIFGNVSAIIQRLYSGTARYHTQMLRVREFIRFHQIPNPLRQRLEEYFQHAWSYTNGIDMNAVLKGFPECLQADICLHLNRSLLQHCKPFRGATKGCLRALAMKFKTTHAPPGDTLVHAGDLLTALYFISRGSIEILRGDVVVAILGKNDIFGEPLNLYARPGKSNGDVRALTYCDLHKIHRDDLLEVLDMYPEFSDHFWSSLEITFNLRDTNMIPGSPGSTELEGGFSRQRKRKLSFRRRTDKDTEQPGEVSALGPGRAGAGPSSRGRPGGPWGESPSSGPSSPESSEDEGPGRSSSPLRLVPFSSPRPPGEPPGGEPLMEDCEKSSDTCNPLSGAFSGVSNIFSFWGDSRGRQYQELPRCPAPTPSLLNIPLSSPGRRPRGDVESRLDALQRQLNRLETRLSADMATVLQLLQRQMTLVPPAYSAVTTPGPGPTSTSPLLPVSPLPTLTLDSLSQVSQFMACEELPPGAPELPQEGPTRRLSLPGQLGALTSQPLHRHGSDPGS
Sequence of TRPV1 (Q8NER1 whole entry, species assumed): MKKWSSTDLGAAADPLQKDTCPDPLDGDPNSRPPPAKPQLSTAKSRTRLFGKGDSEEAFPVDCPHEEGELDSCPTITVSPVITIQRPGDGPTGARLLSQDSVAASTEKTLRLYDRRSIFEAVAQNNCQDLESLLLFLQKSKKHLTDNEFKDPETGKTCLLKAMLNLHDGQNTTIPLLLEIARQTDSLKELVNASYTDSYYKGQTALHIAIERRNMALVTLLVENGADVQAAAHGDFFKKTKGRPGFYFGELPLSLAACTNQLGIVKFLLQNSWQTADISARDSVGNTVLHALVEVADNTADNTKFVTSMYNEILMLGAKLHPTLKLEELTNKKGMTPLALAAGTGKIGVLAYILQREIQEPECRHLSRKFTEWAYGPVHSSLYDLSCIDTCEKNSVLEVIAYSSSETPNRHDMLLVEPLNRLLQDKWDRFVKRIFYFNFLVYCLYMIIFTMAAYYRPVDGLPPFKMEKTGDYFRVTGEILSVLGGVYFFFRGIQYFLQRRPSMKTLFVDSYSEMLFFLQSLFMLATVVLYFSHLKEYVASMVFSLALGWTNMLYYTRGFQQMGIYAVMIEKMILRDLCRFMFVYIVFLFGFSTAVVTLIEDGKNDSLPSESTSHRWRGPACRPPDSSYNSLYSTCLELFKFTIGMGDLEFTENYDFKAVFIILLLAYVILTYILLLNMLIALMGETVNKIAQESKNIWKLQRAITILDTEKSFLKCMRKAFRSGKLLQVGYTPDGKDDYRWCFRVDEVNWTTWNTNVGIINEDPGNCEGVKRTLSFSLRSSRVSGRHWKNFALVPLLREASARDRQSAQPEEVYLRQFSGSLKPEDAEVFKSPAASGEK
T1 sequence (P47936 whole entry): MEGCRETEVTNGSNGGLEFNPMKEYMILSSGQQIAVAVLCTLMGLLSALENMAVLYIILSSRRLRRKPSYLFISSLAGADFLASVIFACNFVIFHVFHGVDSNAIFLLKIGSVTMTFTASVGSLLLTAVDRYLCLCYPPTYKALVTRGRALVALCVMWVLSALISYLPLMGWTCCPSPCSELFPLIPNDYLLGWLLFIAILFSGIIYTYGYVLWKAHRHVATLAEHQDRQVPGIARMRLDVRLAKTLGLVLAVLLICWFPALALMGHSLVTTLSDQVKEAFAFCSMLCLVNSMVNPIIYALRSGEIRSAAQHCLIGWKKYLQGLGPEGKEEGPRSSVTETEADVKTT

With `Cn1c(C(C)(C)C)cc(=NC(=O)c2cc(C(F)(F)F)ccc2OCC(C)(C)O)n1CC1CCC1` [RNB-61] the Vd ([1]; Wistar (rats), mouse strain not stated for this study, rat, mouse, plasma, intravenous, range rats and mice, read-out: volume of distribution at steady state (Vss)) was 1.6 to 2.4 L/kg, the half-life ([1]; Wistar (rats), mouse strain not stated for this study, rat, mouse, plasma, in rats and mice, read-out: terminal plasma half-life) was 4 to 8 h and the “plasma clearance as share of hepatic blood flow” value ([1]; rodent single-dose PK) was ~5 % of hepatic blood flow. For the same compound, the IC50 ([2]; Table S1, read-out: EMT (Ki, IC50)) was > 10 µM, the “inhibition of cellular AEA uptake (EMT)” value ([2]; screening concentration 10 μM) was “did not inhibit” and the hERG inhibition (hERG channel) was >10 µM. The solubility at 15 h ([3]; aqueous buffer, read-out: aqueous solubility THESA) was 316 µg/mL (≈ 656 µM), the solubility at 15 h ([3]; fassif, fasted simulated gastrointestinal fluid, read-out: solubility FaSSIF) was 630 µg/mL (≈ 1310 µM) and the solubility at 15 h ([3]; fessif, fed simulated gastrointestinal fluid, read-out: solubility FeSSIF) was 1370 µg/mL (≈ 2850 µM). For the same compound, the EC50 (mouse CB2R) was 0.00025 ± 0.00013 µM, the AUC(0-inf) ([4]; iv, 1 mg kg^–1 i.v.) was 5170 ng·h/mL and the Tmax ([4]; iv, 1 mg kg^–1 i.v.) was 0.083 h. For the same compound, the clearance ([4]; iv, 1 mg kg^–1 i.v.) was 3.5 mL/min/kg, the half-life ([4]; iv, 1 mg kg^–1 i.v.) was 6 h and the Cmax ([4]; iv, 1 mg kg^–1 i.v., read-out: Cmax) was 619 ng/mL. The Cmax ([4]; iv, 1 mg kg^–1 i.v., read-out: Cmax (molar)) was 1280 nM, the Vd ([4]; iv, 1 mg kg^–1 i.v., read-out: Vss) was 1.6 L/kg and the AUC(0-inf) ([4]; po, 3 mg kg^–1 p.o.) was 7410 ng·h/mL. The Tmax ([4]; po, 3 mg kg^–1 p.o.) was 5.5 h, the bioavailability ([4]; po, 3 mg kg^–1 p.o.) was 48% and the half-life ([4]; po, 3 mg kg^–1 p.o.) was 7.1 h. It also gave a Cmax ([4]; po, 3 mg kg^–1 p.o., read-out: Cmax) of 446 ng/mL, a Cmax ([4]; po, 3 mg kg^–1 p.o., read-out: Cmax (molar)) of 926 nM and an AUC(0-inf) ([4]; po, 26 mg kg^–1 p.o.) of 117000 ng·h/mL. The Tmax ([4]; po, 26 mg kg^–1 p.o.) was 3 h, the bioavailability ([4]; po, 26 mg kg^–1 p.o.) was 87% and the half-life ([4]; po, 26 mg kg^–1 p.o.) was 49 h. For the same compound, the Cmax ([4]; po, 26 mg kg^–1 p.o., read-out: Cmax) was 1710 ng/mL, the Cmax ([4]; po, 26 mg kg^–1 p.o., read-out: Cmax (molar)) was 3500 nM and the IC50 (TRPV1) was > 50 µM. The microsomal CLint (Microsomal clearance; Table 1) was < 10 µL/min/mg and the microsomal CLint (Microsomal clearance; Table 3) was ≤ 10 µL/min/mg.
